This assay deals with capacitative calcium entry (CCE) in IP3 receptor-deficient strain of cell line DT40.

Like-named read-outs stand apart in the source and are kept apart here.
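Also: intracellular Ca2+ read as 340/380 nm excitation ratio at 510 nm emission, stores emptied by thapsigargin without external Ca2+, then 2 mM CaCl2 added, inhibition of the ensuing Ca2+ rise.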

Procedure: (Assay of Capacitative Calcium Entry Inhibition)
Its 510 nm fluorescence obtained at 340 nm and 380 nm is measured and the fluorescence ratio F340/380 is measured to determine the intracellular calcium ion concentration. Next, thapsigargin (an endoplasmic reticulum calcium ion pump inhibitor) is allowed to act without calcium ion in an extracellular fluid to deplete an intracellular calcium store. Calcium chloride at a final concentration of 2 mM is added to the extracellular fluid. The IC50 value is calculated by estimating the effect of each compound on the degree of increase in the intracellular calcium concentration at the time of the addition.

`NCCOB(c1ccccc1)c1ccc(COCc2cccc(B(OCCN)c3ccccc3)c2)cc1` [Example 13, (3-(Phenylaminoethoxyboryl)benzyl) (4-(phenylaminoethoxyboryl)benzyl) ether]: the inhibition (in general, the change of the read-out against control, counted positive when it falls) runs as follows: (0.1 µM) 10%; (0.2 µM) 80%; (0.3 µM) 100%.
On to `Cc1ccc(B(O)c2ccc(COCc3ccc(B(O)c4ccc(C)c(Cl)c4)cc3)cc2)cc1Cl` [Example 90, Bis(4,4′-(3-chloro-4-methylphenyl-hydroxyboryl)benzyl) ether], for which the inhibition turned out to be 20% (1 µM) and 100% (3 µM).
For `CNCCOB(c1ccccc1)c1cccc(COCc2cccc(B(OCCNC)c3ccccc3)c2)c1` [Example 151, Bis(3,3′-(phenyl-N-methylethoxyboryl)benzyl) ether], the inhibition stood at 60% (1 µM) and 100% (3 µM).
On the same counts, the results for `c1ccc(B(OCc2ccccn2)c2ccc(COc3ccc(B(OCc4ccccn4)c4ccccc4)cc3)cc2)cc1` [Example 111, (4-Phenyl-2-pyridylmethoxyborylphenyl) (4′-phenyl-2-pyridylmethoxyborylbenzyl) ether] are 20% and 100%.
As for `CC(CCNCCN)OB(c1ccccc1)c1cccc(COCc2cccc(B(OC(C)CCNCCN)c3ccccc3)c2)c1` (stereo not drawn) [Example 152, Bis(3,3′-(phenyl-N-aminoethyl-1-methyl-3-aminopropoxyboryl)benzyl) ether], the inhibition runs as follows: (1 µM) 40%; (3 µM) 80%.
Consider `CNCCOB(c1ccc(COc2ccc(B(OCCNC)c3ccc(C(F)(F)F)cc3)cc2)cc1)c1ccc(C(F)(F)F)cc1` [Example 84, (4′-Trifluoromethylphenyl-N-methylaminoethoxyboryl)-4-phenyl (4′-trifluoromethylphenyl-N-methylaminoethoxyboryl)-4-benzyl ether], for which the inhibition was 50% (1 µM) and 100% (3 µM).
As for `OB(c1ccc(COc2ccc(B(O)c3ccc(C(F)(F)F)cc3)cc2)cc1)c1ccc(C(F)(F)F)cc1` [Example 54, (4-Trifluoromethylphenylhydroxyborylphenyl) (4′-trifluoromethylphenylhydroxyborylbenzyl) ether], the inhibition is 60% (1 µM) and 100% (3 µM).
For `Cc1ccc(B(OCCN)c2ccc(-c3ccc(B(OCCN)c4ccc(C)cc4)cc3)cc2)cc1` [Example 45, 4,4′-(4-Methylphenylaminoethoxyboryl)diphenyl], in that order: 20% and 100%.
On the same counts, the results for `Cc1ccc(B(OCCN(C)C)c2ccc(COCc3ccc(B(OCCN(C)C)c4ccc(C)c(Cl)c4)cc3)cc2)cc1Cl` [Example 104, Bis(4,4′-(3-chloro-4-methylphenyl-N,N-dimethylaminoethoxyboryl)benzyl) ether] are 20% and 100%.
For the molecule `CN(C)CCOB(c1ccccc1)c1cccc(COCc2cccc(B(OCCN(C)C)c3ccccc3)c2)c1` [Example 85, Bis(3,3′-(phenyl-N,N-dimethylaminoethoxyboryl)benzyl) ether], the inhibition (1 µM) worked out at 10% and the inhibition (3 µM) amounted to 90%.
As to `c1ccc(B(OCc2ccccn2)c2ccc(Oc3ccc(B(OCc4ccccn4)c4ccccc4)cc3)cc2)cc1` [Example 160, Bis(4,4′-(phenyl-2-pyridylmethoxyboryl)phenyl) ether], the inhibition runs as follows: (3 µM) 0%; (10 µM) 100%.
Consider “Bis(4,4′-(phenyl-N-methylpiperidine-methoxyboryl)benzyl) ether [Example 139]”, for which the inhibition is, setting by setting: (1 µM) 40%; (3 µM) 100%.
For `CN(C)CCOB(c1ccccc1)c1ccc(COc2ccc(B(OCCN(C)C)c3ccccc3)cc2)cc1` [Example 110, (4-Phenyl-N,N-dimethylaminoethoxyborylphenyl) 4′-(N,N-dimethylaminoethoxyborylbenzyl) ether], in that order: 20% and 100%.
With `NC(COB(c1ccccc1)c1ccc(COCc2ccc(B(OCC(N)c3ccccc3)c3ccccc3)cc2)cc1)c1ccccc1` (stereo not drawn) [Example 164, Bis(4,4′-(phenyl-2-phenyl-2-amino-ethoxyboryl)benzyl) ether], the inhibition (3 µM) was 100% and the inhibition (10 µM) was 100%.
Turning to “Bis(4,4′-(phenyl-ornithineboryl)phenyl) ether [Example 117]”, the inhibition is 80% (1 µM) and 100% (3 µM).
Take `CNCCOB(c1ccc(COCc2ccc(B(OCCNC)c3ccc(OC)cc3)cc2)cc1)c1ccc(OC)cc1` [Example 95, Bis(4,4′-(p-methoxyphenyl-N-methylaminoethoxyboryl)benzyl) ether]: the inhibition by setting is: (1 µM) 80%; (3 µM) 80%.
With `CN(C)CCOB(c1ccc(COCc2ccc(B(OCCN(C)C)c3ccc(C(F)(F)F)cc3)cc2)cc1)c1ccc(C(F)(F)F)cc1` [Example 106, Bis(4,4′-(p-trifluoromethylphenyl-N,N-dimethylaminoethoxyboryl)benzyl) ether], the inhibition (1 µM) is 30% and the inhibition (3 µM) came out at 100%.
For `CCCCNCCB(c1ccccc1)c1cccc(COCc2cccc(B(CCNCCCC)c3ccccc3)c2)c1` [Example 155, Bis(3,3′-(phenyl-N-butylaminoethylboryl)benzyl) ether], in that order: 95% and 100%.
On the same counts, the results for `CNCCOB(c1ccccc1)c1ccc(COc2ccc(B(OCCNC)c3ccccc3)cc2)cc1` [Example 109, (4-Phenyl-N-methylaminoethoxyborylphenyl) 4′-(N-methylaminoethoxyborylbenzyl) ether] are 80% and 100%.
In the case of `CC(C)(C)c1cc(B(OCCN)c2ccccc2)c2c(c1)C(C)(C)c1cc(C(C)(C)C)cc(B(OCCN)c3ccccc3)c1O2` [Example 60, 4,5-Di(phenylaminoethoxyboryl)-2,7-di-t-butyl-9,9-dimethylxanthrene], the inhibition was found to be 20% (1 µM) and 100% (3 µM).
For `c1ccc(B(OCC2CCCN2)c2ccc(COCc3ccc(B(OCC4CCCN4)c4ccccc4)cc3)cc2)cc1` (stereo not drawn) [Example 134, Bis(4,4′-(phenyl-2-pyrrolidinemethoxyboryl)benzyl) ether], in that order: 20% and 100%.
Regarding `Cc1ccc(B(OCC2CCCCN2)c2ccc(COCc3ccc(B(OCC4CCCCN4)c4ccc(C)c(Cl)c4)cc3)cc2)cc1Cl` (stereo not drawn) [Example 105, Bis(4,4′-(3-chloro-4-methylphenyl-2-piperidylmethyloxyboryl)benzyl) ether], the inhibition (1 µM) was 30% and the inhibition (3 µM) came to 100%.
Turning to `NCCOB(c1ccccc1)c1ccc(COc2ccc(B(OCCN)c3ccccc3)cc2)cc1` [Example 52, (4-Phenylaminoethoxyborylphenyl) (4′-phenylaminoethoxyborylbenzyl) ether], the inhibition (3 µM) came to 100%.
On to `NCCOB(c1ccc(COCc2ccc(B(OCCN)c3ccc(C(F)(F)F)cc3)cc2)cc1)c1ccc(C(F)(F)F)cc1` [Example 108, Bis(4,4′-(p-trifluoromethylphenyl-aminoethoxyboryl)benzyl) ether], for which the inhibition runs as follows: (1 µM) 20%; (3 µM) 100%.
For the molecule `NCCOB(c1ccccc1)c1cccc(COCc2cccc(B(OCCN)c3ccccc3)c2)c1` [Example 5, Bis(3,3′-(phenylaminoethoxyboryl)benzyl) ether], the inhibition (0.03 µM) turned out to be 30%, the inhibition (0.1 µM) came to 95% and the inhibition (0.3 µM) is 100%.
As to `NCCOB(c1ccc(COCCOc2ccc(B(OCCN)c3cccs3)cc2)cc1)c1cccs1` [Example 53, (4-(2-Thiopheneaminoethoxyboryl)phenoxyethyl) (4′-(2-thiopheneaminoethoxyboryl)benzyl) ether], the inhibition (1 µM) was 10%.
Take `Cc1ccc(B(OCCN)c2ccc(COCc3ccc(B(OCCN)c4ccc(C)c(Cl)c4)cc3)cc2)cc1Cl` [Example 102, Bis(4,4′-(3-chloro-4-methylphenyl-aminoethoxyboryl)benzyl) ether]: the inhibition stood at 30% (1 µM) and 100% (3 µM).
On the same counts, the results for `CCCCNCCOB(c1ccccc1)c1ccc(COCc2ccc(B(OCCNCCCC)c3ccccc3)cc2)cc1` [Example 136, Bis(4,4′-(phenyl-butylaminoethoxyboryl)benzyl) ether] are 30% and 100%.
On to `CNCCOB(c1ccccc1)c1ccc(Oc2ccc(B(OCCNC)c3ccccc3)cc2)cc1` [Example 68, Bis(4,4′-(phenyl-N-methylaminoethoxyboryl)phenyl) ether], for which the inhibition reads like this: (0.3 µM) 20%; (1 µM) 80%.
Take `NCC(OB(c1ccccc1)c1cccc(COCc2cccc(B(OC(CN)c3ccccc3)c3ccccc3)c2)c1)c1ccccc1` (stereo not drawn) [Example 150, Bis(3,3′-(phenyl-2-amino-1-phenylethoxyboryl)benzyl) ether]: the inhibition was 50% (1 µM) and 100% (3 µM).
Take `CNCCOB(c1ccc(COCc2ccc(B(OCCNC)c3ccc(C)c(Cl)c3)cc2)cc1)c1ccc(C)c(Cl)c1` [Example 103, Bis(4,4′-(3-chloro-4-methylphenyl-N-methylaminoethoxyboryl)benzyl) ether]: the inhibition is, setting by setting: (1 µM) 30%; (3 µM) 80%.
As to `NCCOB(c1ccc(COc2ccc(B(OCCN)c3ccc(C(F)(F)F)cc3)cc2)cc1)c1ccc(C(F)(F)F)cc1` [Example 55], the inhibition (0.3 µM) is 0%, the inhibition (1 µM) amounted to 20% and the inhibition (3 µM) was 100%.
Take `OB(c1ccccc1)c1cccc(COCc2cccc(B(O)c3ccccc3)c2)c1` [Example 4]: the inhibition runs as follows: (0.1 µM) 70%; (0.3 µM) 95%; (1 µM) 100%.
In the case of `NCCOB(c1ccccc1)c1ccccc1` [(2-aminoethoxy)diphenylborane, reference compound], the IC50 (in general, the concentration needed to halve the response being measured) was 5 µM.
`OB(c1ccccc1)c1ccc(Oc2ccc(B(O)c3ccccc3)cc2)cc1` [Example 1, Bis(4,4′-(phenylhydroxyboryl)phenyl) ether]: the inhibition (3 µM) amounted to 50%.
Turning to `OB(c1ccccc1)c1ccc(COc2ccc(B(O)c3ccccc3)cc2)cc1` [Example 51, (4-Phenylhydroxyborylphenyl) (4′-phenylhydroxyborylbenzyl) ether], the inhibition turned out to be 20% (1 µM) and 100% (3 µM).
